Consider 2 compounds from PMC8317467 (FASEB journal : official publication of the Federation of …, 2020).

Each structure is given as a SMILES string. Changes are numbered by the printed parent chain. Entries after “also recorded” stand apart in the source; their conditions may differ.

In data set [1] the test system is F439A. The settings on record: ref 11 (Manolaridis et al); cited from earlier work.
Data set [2] concerns N436A. As to conditions: ref 11 (Manolaridis et al); cited from earlier work.
The target of data set [3] is T1, WT-ABCG2 (Homo sapiens, UniProt Q9UNQ0).
T1 sequence (Q9UNQ0 1-655): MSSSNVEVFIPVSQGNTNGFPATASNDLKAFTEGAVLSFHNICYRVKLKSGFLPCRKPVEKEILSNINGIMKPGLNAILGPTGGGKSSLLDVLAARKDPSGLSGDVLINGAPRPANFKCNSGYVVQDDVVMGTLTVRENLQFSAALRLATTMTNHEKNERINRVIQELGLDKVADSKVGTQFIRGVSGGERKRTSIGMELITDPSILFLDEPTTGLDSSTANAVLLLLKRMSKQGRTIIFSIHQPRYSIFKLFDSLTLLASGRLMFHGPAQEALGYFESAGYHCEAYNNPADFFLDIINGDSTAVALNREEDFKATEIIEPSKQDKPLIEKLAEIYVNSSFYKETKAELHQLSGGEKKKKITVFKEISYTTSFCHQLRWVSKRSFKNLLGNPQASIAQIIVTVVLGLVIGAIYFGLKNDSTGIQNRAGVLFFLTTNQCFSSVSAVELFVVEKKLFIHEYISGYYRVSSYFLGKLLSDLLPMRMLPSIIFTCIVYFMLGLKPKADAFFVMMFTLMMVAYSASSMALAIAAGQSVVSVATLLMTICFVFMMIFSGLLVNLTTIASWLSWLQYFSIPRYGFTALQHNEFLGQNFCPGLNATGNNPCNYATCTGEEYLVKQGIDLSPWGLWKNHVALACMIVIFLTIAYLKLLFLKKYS
The experiment in a line: Membrane thermal shift, MEF membrane vesicles, WT-ABCG2. In kind it is binding. The settings on record: 10 μM of ligand, 60 min at 37°C, heated 3 min at 65°C.

Data set [4] addresses T2, F439W-ABCG2 (Homo sapiens, UniProt Q9UNQ0, F439W).
T2 sequence (Q9UNQ0 1-655 F439W): T1 sequence (Q9UNQ0 1-655) with F439W
In words: Membrane thermal shift, MEF membrane vesicles, F439W. The class given is binding. The settings on record: 10 μM of Hoechst 33342, 60 min at 37°C.

In data set [5] the target is T3, F439Y-ABCG2 (Homo sapiens, UniProt Q9UNQ0, F439Y).
T3 sequence (Q9UNQ0 1-655 F439Y): T1 sequence (Q9UNQ0 1-655) with F439Y
In words: Membrane thermal shift, MEF membrane vesicles, F439Y. The class given is binding. As to conditions: 10 μM of Hoechst 33342, 60 min at 37°C.

Data set [6] concerns the target T4, F439A-ABCG2 (Homo sapiens, UniProt Q9UNQ0, F439A).
T4 sequence (Q9UNQ0 1-655 F439A): T1 sequence (Q9UNQ0 1-655) with F439A
In words: Transport assay. As to conditions: 0.5 μM substrate. The class given is cell-based.

For data set [7], the target named is T2, F439W-ABCG2. The experiment in a line: Transport assay. In kind it is cell-based. As to conditions: 0.5 μM of Hoechst 33342, ± 10 μM of Lapatinib, 120 min.
Data set [8] deals with T3, F439Y-ABCG2. In words: Transport assay. The class given is cell-based. The settings on record: 0.5 μM of Hoechst 33342, ± 10 μM of Lapatinib, 120 min.

On to `C[C@]12CC[C@@H]3c4ccc(OS(=O)(=O)O)cc4CC[C@H]3[C@@H]1CCC2=O` [estrone-3-sulfate], for which the “transport of substrate by F439A” value in data set [1] is “could not transport”. Besides, the “transport of substrate by N436A” value in data set [2] is “incapable”.
On to `CCOc1ccc(-c2nc3ccc(-c4nc5ccc(N6CCN(C)CC6)cc5[nH]4)cc3[nH]2)cc1` [Hoechst 33342], for which the “thermal stabilization of WT-ABCG2 by ligand” value in data set [3] was “stabilized”. In data set [4], the “thermal stabilization of F439W-ABCG2 by ligand” value is given as “stabilized”. The “thermal stabilization of F439Y-ABCG2 by ligand” value in data set [5] is reported as “stabilized”. Further, in data set [6], the “transport of substrate by F439A-ABCG2” value is given as “incapable of transporting; also recorded: no net ABCG2 mediated transport”. In data set [7], the “transport of substrate by F439W-ABCG2” value was “transport activity similar to WT-ABCG2”. Besides, the “transport of substrate by F439Y-ABCG2” value in data set [8] was “transport activity similar to WT-ABCG2”.
